# Measured values published in US20140010876A1, “PHARMACEUTICAL ADMINISTRATION FORMS COMPRISING 5-CHLORO-N-(METHYL)-2-THIOPHENECARBOXAMIDE” (BAYER PHARMA AKTIENGESELLSCHAFT, priority 2012, published 2014).
# Test: solubility of the active compound (I) in water
# Type: physicochemical
# Description: During the development of formulations, the physicochemical characteristics have to be taken into account in combination with the particular biological properties of the active compound (I). The physicochemical characteristics include, for example, the poor solubility of the active compound (I) in water (about 7 mg/l). The particular biological properties of the active compound (I) are a food-dependent bioavailability (the “food effect”) which, in the case of rapid-release tablet formulations, is noticeable at dosages from about 15 mg, and a limited absorption from the lower sections of the intestine. As a consequence, the desired administration once daily requires specific pharmaceutical formulations releasing the active compound (I) taking into account its biopharmaceutical characteristics, such that on the one hand the active compound (I) is present in an amount sufficient to have a pharmaceutical effect and that on the other hand the active compound (I) is released in a manner such that its challenging properties with respect to solubility, food effect and absorption are overcome.
compound,measurement,value
"O=C(NC[C@H]1CN(c2ccc(N3CCOCC3=O)cc2)C(=O)O1)c1ccc(Cl)s1 [active compound (I), 5-chloro-N-({(5S)-2-oxo-3-[4-(3-oxo-4-morpholinyl)phenyl]-1,3-oxazolidin-5-yl}methyl)-2-thiophenecarboxamide]",solubility,~7 µg/mL
